# Test results reported in patent US5401490A, “Markers of tissue hypoxia” (priority 1989, dated 1995).
# Tests used:
# [1] = tested on: EMT-6 cells; experiment: Toxicity to hypoxic EMT-6 cells (surviving fraction); type: cell-based, mouse
# Procedure: This represents a cytosidal toxicity about 10× that of MISO under the same conditions.
# EXAMPLE 9 TOXICITY STUDIES
# EMT-6 mouse fibrosarcoma cells in stirred cultures, as described previously (5), were exposed to various concentrations of the test drugs under hypoxic conditions. Cells were removed at various intervals and the colony-forming ability was assessed by plating the cells in drug-free complete MEM with 10% fetal calf serum. The data were used to construct plots of surviving fraction of EMT-6 cells against time of incubation with test drug at various drug concentrations (FIG. 2) as in Jette (13).
# [2] = tested on: BALB/C mice bearing subcutaneous EMT-6 tumors; experiment: Tissue distribution of radioactivity after intravenous injection; type: in vivo; conditions: for Tissue to Blood Ratio, Intestine / Tissue to Blood Ratio, Kidney / Tissue to Blood Ratio, Liver / Tissue to Blood Ratio, Lung / Tissue to Blood Ratio, Muscle / Tissue to Blood Ratio, Stomach / Tissue to Blood Ratio, Tumor: i.v.
# Source text: Tables 1 and 2 show the percent of injected IAZG and IAZA respectively per gram of wet tissue for selected tissues excised from BALB/C mice bearing EMT-6 tumors. This tumor model is known to have a high hypoxic fraction (0.33) (16). […] Hepatobiliary excretion may play a role in blood clearance as evidenced by elevated liver radioactivity and the appearance of activity in the intestine. Some oxidative or reductive metabolites of the 2-nitroimidazoles may also become bound to liver tissue, as was postulated in an in vivo study with ^14 C-MISO (6). This supposition is supported by the persistence of liver radioactivity at longer time periods. […] At 8 and 24 hours thyroid levels of IAZG are 7.2 and 30.9% of the total body activity and for IAZA they are 7.9 and 33.8% of total body activity. EXAMPLE 11 TISSUE DISTRIBUTION AND EXCRETION Tumor propagation of EMT-6 tumors in BALB/C mice was accomplished by subcutaneous injection of a cell suspension (10^5 cells in 0.1 mL) as described previously (10). Tumors reached about 10 mm in diameter (≈0.5 g) at 12 to 14 days, at which time each animal was given a bolus intravenous injection of ^125 I-labelled test drug via the tail vein (40 to 60 kBq in 0.1 mL). At set time periods the animals were asphyxiated with CO2 and exsanguinated via cardiac puncture. Tissues were dissected, weighed wet into vials and counted for ^125 I-activity. Whole-body activity was determined by summation of total activity in tissues and in residual carcass, and blood activity was determined from the blood aliquot, assuming blood to be 6.5% of the total body weight. EXAMPLE 12 Male BALB/c mice (20-25 g) were inoculated subcutaneously in the left flank with a suspension of murine EMT-6 cells (10^5 cells in 0.1 mL) (14). After 12 to 14 days, when the tumors reached the desired size (8-10 mm diameter), each mouse received a single intravenous (iv) injection of ^125 I-IAZA (59 kBq in 0.1 mL). […] Heart, lung, liver, spleen, muscle, bone, thyroid, kidney, stomach, small intestine, tail, tumor and skin were removed upon necropsy, weighed and analyzed for ^125 I using a Beckman Model 8000 gamma scintillation counter. The remaining carcass mass was also weighed and radioassayed.
# [3] = tested on: EMT-6 cells; experiment: Cell uptake / binding to the acid insoluble (macromolecular) fraction of EMT-6 cells; type: cell-based, mouse
# Procedure: The binding of IAZG to the acid precipitable fraction of EMT-6 cells in vitro is dependent on the degree of hypoxia as shown in FIG. 4. […] To assess the relative efficiency of uptake of the test compounds, the initial binding rate in terms of pmol/10^6 cells/h was determined at several different concentrations. […] This is the highest binding rate measured to date for any 2-nitroimidazole derivative and is 4 to 8 times greater than MISO.
# Initial binding rates were measured (FIG. 8) at four concentrations of IAZA (3, 10, 30 and 100 μM), using normally oxygenated and hypoxic EMT-6 cell cultures as described previously (13). Similar studies at the same concentration of misonidazole were used as controls.
# EXAMPLE 8 CELL UPTAKE STUDIES
# The uptake of test drugs into EMT-6 cell suspensions, under oxic and hypoxic conditions, was determined as described previously (18, 13). The data were analyzed in terms of drug binding to the macromolecular fraction at various times and at various test drug concentrations (FIG. 4). The initial binding rate, in units of pmol/10^6 cells per hour for each drug, was determined from the binding data (FIG. 5).
smiles,measurement,setting,value
"O=[N+]([O-])c1nccn1[C@@H]1O[C@H](CI)[C@H](O)[C@H](O)[C@H]1O [IAZG, 1-(6-iodo-6-deoxy-β-D-galactopyranosyl)-2-nitroimidazole]",time required to reduce the cell population by 90%,"[1]; 1.0 mM, hypoxic, 37° C.",about 1.75 h
same,cytosidal toxicity relative to MISO,"[1]; 1.0 mM, hypoxic, same conditions",about 10 ×
same,selective toxicity to hypoxic EMT-6 tumor cells,[1]; in words,selective toxicity to hypoxic EMT-6 tumor cells
same,toxicity under oxic conditions,[1]; oxic,absence of toxicity under oxic conditions
same,"Tissue to Blood Ratio, Intestine",[2]; 0.25 h,3.65
same,"Tissue to Blood Ratio, Kidney",[2]; 0.25 h,8.58
same,"Tissue to Blood Ratio, Liver",[2]; 0.25 h,3.00
same,"Tissue to Blood Ratio, Lung",[2]; 0.25 h,1.51
same,"Tissue to Blood Ratio, Muscle",[2]; 0.25 h,0.72
same,"Tissue to Blood Ratio, Stomach",[2]; 0.25 h,1.79
same,"Tissue to Blood Ratio, Tumor",[2]; 0.25 h,0.95
same,"Tissue to Blood Ratio, Intestine",[2]; 0.50 h,3.19
same,"Tissue to Blood Ratio, Kidney",[2]; 0.50 h,8.07
same,"Tissue to Blood Ratio, Liver",[2]; 0.50 h,2.66
same,"Tissue to Blood Ratio, Lung",[2]; 0.50 h,1.31
same,"Tissue to Blood Ratio, Muscle",[2]; 0.50 h,0.63
same,"Tissue to Blood Ratio, Stomach",[2]; 0.50 h,1.92
same,"Tissue to Blood Ratio, Tumor",[2]; 0.50 h,1.31
same,"Tissue to Blood Ratio, Intestine",[2]; 1 h,1.42
same,"Tissue to Blood Ratio, Kidney",[2]; 1 h,5.56
same,"Tissue to Blood Ratio, Liver",[2]; 1 h,1.82
same,"Tissue to Blood Ratio, Lung",[2]; 1 h,0.90
same,"Tissue to Blood Ratio, Muscle",[2]; 1 h,0.48
same,"Tissue to Blood Ratio, Stomach",[2]; 1 h,1.64
same,"Tissue to Blood Ratio, Tumor",[2]; 1 h,1.47
same,"Tissue to Blood Ratio, Intestine",[2]; 2 h,1.48
same,"Tissue to Blood Ratio, Kidney",[2]; 2 h,5.06
same,"Tissue to Blood Ratio, Liver",[2]; 2 h,2.55
same,"Tissue to Blood Ratio, Lung",[2]; 2 h,1.13
same,"Tissue to Blood Ratio, Muscle",[2]; 2 h,0.62
same,"Tissue to Blood Ratio, Stomach",[2]; 2 h,2.61
same,"Tissue to Blood Ratio, Tumor",[2]; 2 h,1.45
same,"Tissue to Blood Ratio, Intestine",[2]; 4 h,1.04
same,"Tissue to Blood Ratio, Kidney",[2]; 4 h,4.00
same,"Tissue to Blood Ratio, Liver",[2]; 4 h,1.51
same,"Tissue to Blood Ratio, Lung",[2]; 4 h,1.16
same,"Tissue to Blood Ratio, Muscle",[2]; 4 h,0.49
same,"Tissue to Blood Ratio, Stomach",[2]; 4 h,1.85
same,"Tissue to Blood Ratio, Tumor",[2]; 4 h,1.56
same,"Tissue to Blood Ratio, Intestine",[2]; 8 h,1.05
same,"Tissue to Blood Ratio, Kidney",[2]; 8 h,2.47
same,"Tissue to Blood Ratio, Liver",[2]; 8 h,1.24
same,"Tissue to Blood Ratio, Lung",[2]; 8 h,0.98
same,"Tissue to Blood Ratio, Muscle",[2]; 8 h,0.36
same,"Tissue to Blood Ratio, Stomach",[2]; 8 h,2.50
same,"Tissue to Blood Ratio, Tumor",[2]; 8 h,1.34
same,thyroid levels,[2]; 8 hours,7.2 % of the total body activity
same,"Tissue to Blood Ratio, Intestine",[2]; 24 h,0.83
same,"Tissue to Blood Ratio, Kidney",[2]; 24 h,1.52
same,"Tissue to Blood Ratio, Liver",[2]; 24 h,1.32
same,"Tissue to Blood Ratio, Lung",[2]; 24 h,1.26
same,"Tissue to Blood Ratio, Muscle",[2]; 24 h,0.38
same,"Tissue to Blood Ratio, Stomach",[2]; 24 h,0.87
same,"Tissue to Blood Ratio, Tumor",[2]; 24 h,1.41
same,thyroid levels,[2]; 24 hours,30.9 % of the total body activity
same,injected dose in tumor at maximal tumor to blood ratio,[2]; at 4 h,0.23 % of the injected dose
same,maximal tumor to blood ratio,[2]; at 4 h,1.56
same,deiodination (increase in thyroid radioactivity),[2]; longer periods (>4 h),evidence of deiodination at longer periods (>4 h)
same,binding with time,[3],appears to increase linearly with time
same,oxygen dependence of uptake/binding,"[3]; 10 μM, various oxygen levels",greatest uptake of IAZG occurs under nitrogen incubation with a decrease in the binding rate as the oxygen concentration to which the cells are exposed is increased
same,"initial binding rate, comparison","[3]; hypoxic, vs IAZA or MISO",higher binding rate than IAZA or MISO
